Measured values as given in patent US11903955B2, “Methods of treating heart failure with reduced ejection fraction” (ASTRAZENECA AB, priority 2019, dated 2024).
Where “and” joins values, the source holds several entries; their conditions need not be identical. Identical values can stand only once. Like-named read-outs stand apart in the source and are kept apart here. Marks after values point to notes of the source that are not given here.

What was measured:
[1] = system: patients with chronic heart failure with reduced ejection fraction (LVEF ≤40%); conditions: for NT-proBNP, between-treatment difference: baseline to 8 months; for decrease in NT-proBNP: between baseline and 8 months
Experimental: Data from all randomly assigned patients were included in the analyses of the primary and secondary outcomes, according to the intention-to-treat principle. Baseline characteristics were summarized as means and standard deviations, medians and inter-quartile ranges, or percentages. Longitudinal measures, such as glycated hemoglobin level (HbA1c) and body weight, were analyzed using mixed model for repeated measurements, and the least-squares mean differences between treatment groups were estimated, together with 95% confidence intervals. Time-to-event data were evaluated with the use of Kaplan-Meier estimates and Cox proportional hazards models, stratified by diabetes status, with history of heart failure hospitalization and treatment as fixed-effect factors (for the renal endpoint, baseline eGFR was included instead of history of heart failure hospitalization); hazard ratios, 95% confidence intervals, and two-sided P values were calculated with the use of the Cox models.

[2] = system: patients with chronic heart failure with reduced ejection fraction (LVEF ≤40%); conditions: for Change in KCCQ total symptom score at 8 mo., Win ratio (95% CI): >1 indicates superiority; for KCCQ-TSS increase, points more with dapagliflozin compared to placebo: baseline to 8 months
Experimental: KCCQ total symptom score was analyzed as a composite rank-based endpoint, incorporating patient vital status at 8 months along with change in score from baseline to 8 months in surviving patients, using the rank analysis of covariance method, with a corresponding win ratio used to estimate the magnitude of treatment effect.^17 The consistency of the treatment effect among 14 prespecified subgroups were assessed.
The KCCQ was completed electronically by patients, without assistance by site study staff (as validated), and evaluated at randomization, 4-months, and 8-months. The KCCQ is a 23-item, self-administered disease-specific instrument that quantifies symptoms (frequency, severity and recent change), physical function, quality of life, and social function over the prior 2 weeks. In the KCCQ, the total symptom score (TSS) quantifies the symptom frequency and severity, KCCQ clinical summary score (KCCQ-CSS) includes the physical function and symptoms domains, and KCCQ overall summary score (OSS) is derived from the following domains (total symptom score, physical function, quality of life and social function). […] Scores are transformed to a range of 0-100, in which higher scores reflect better health status.
In this study, patients were divided into three subgroups, based on the tertiles of baseline KCCQ-TSS (which was the KCCQ domain prespecified as the secondary endpoint): (i) ≤65.6, (ii) 65.7-87.5, (iii) >87.5 points.
The differences between treatment groups in mean KCCQ-TSS, CSS, and OSS at 4 months and 8 months in surviving patients were analyzed, using a mixed model for repeated measurements and estimated the least-squares mean differences between treatment groups adjusted for baseline values. Responder analyses were conducted examining proportions of patients with a deterioration, and clinically important improvements in KCCQ at 8 months. Established, clinically meaningful thresholds for KCCQ (≥5 point (at least small), ≥10 point (moderate), and ≥15 point (large) change) were used for all responder analyses across the KCCQ domains.
Odds ratios to estimate differences between treatment groups, and their corresponding 95% confidence intervals and 2-sided p-values were estimated from logistic regression models (which included treatment group, stratification variable (T2D at randomization) and baseline KCCQ values); the models used imputed data accounting for missing KCCQ values and estimates were combined using Rubin's rules.

[3] = baseline to 8 month, dapagliflozin vs placebo
[4] = dapagliflozin vs placebo, at 8 months
[5] = individuals with diabetes, dapagliflozin vs placebo
[6] = individuals without diabetes, dapagliflozin vs placebo

Structure (SMILES): CCOc1ccc(Cc2cc([C@@H]3O[C@H](CO)[C@@H](O)[C@H](O)[C@H]3O)ccc2Cl)cc1 [Dapagliflozin, dapagliflozin]
- Change in systolic BP ([1]; baseline to 8 month (Visit 6)): −1.92 ± 14.92 mmHg
- Change in weight ([1]; baseline to 8 month (Visit 6)): -0.88 ± 3.86 kg
- Change in HbA1c ([1]; baseline to 8 month (Visit 6), only patients with diabetes at baseline): −0.21 ± 1.14%
- Systolic BP, between group difference (95% CI) [1, 3]: −1.41 (−2.31 to −0.52), p = 0.002 mmHg
- Weight, between group difference (95% CI) [1, 3]: −0.98 (−1.22 to −0.74), p < 0.001 kg
- HbA1c, between group difference (95% CI) ([1]; baseline to 8 month, dapagliflozin vs placebo, only patients with diabetes at baseline): −0.25 (−0.36 to −0.14), p < 0.001%
- Change in potassium ([1]; in vivo): 0.07 ± 0.53
- Potassium, between group difference (95% CI) ([1]; in vivo): −0.02 (−0.05 to 0.01), p = 0.298
- NT-proBNP, between-treatment difference ([1]; participants with diabetes, dapagliflozin vs placebo): −333 (−562 to −104) pg/ml
- decrease in NT-proBNP ([1]; participants with diabetes): 257 ± 2502 pg/mL
- NT-proBNP, between-treatment difference ([1]; patients without diabetes, dapagliflozin vs placebo): −278 (−485 to −71) pg/ml
- decrease in NT-proBNP ([1]; patients without diabetes): 144 ± 2286 pg/mL
- Change in KCCQ total symptom score at 8 mo. ([2]; No T2DM (N = 1298)): 5.4 ± 17.7
- Change in KCCQ total symptom score at 8 mo. ([2]; T2DM (N = 1075)): 7.0 ± 19.7
- KCCQ total symptom score, mean difference dapagliflozin vs placebo ([2]; all patients, at 8 months): 2.8 points
- patients with deterioration (≥5 point decline) in KCCQ-TSS ([2]; all patients, at 8 months): 25% and 25.3%
- patients with five or greater point (at least small) improvement in KCCQ-TSS ([2]; all patients, at 8 months): 58% and 58.3%
- Change in KCCQ total symptom score at 8 mo. ([2]; all patients, baseline to month 8, mean ± SD): 6.1 ± 18.6 points
- Change in KCCQ total symptom score at 8 mo. ([2]; all patients, baseline to month 8, mean ± SD, listed as dapagliflozin): 6.1±18.6 points
- mean KCCQ-CSS, points higher than placebo ([2]; at 4 months): 1.8 points
- mean KCCQ-OSS, points higher than placebo ([2]; at 4 months): 1.7 points
- mean KCCQ-TSS, points higher than placebo ([2]; at 4 months): 1.9 points
- mean KCCQ-CSS, points higher than placebo ([2]; at 8 months): 2.5 points
- mean KCCQ-OSS, points higher than placebo ([2]; at 8 months): 2.3 points
- number needed to treat (NNT) for at least small (≥5 point) improvement in KCCQ-TSS ([2]; at 8 months): 14 (10-23)
- number needed to treat (NNT) for large (≥15 point) improvement in KCCQ-TSS ([2]; at 8 months): 18 (12-35)
- number needed to treat (NNT) for moderate (≥10 point) improvement in KCCQ-TSS ([2]; at 8 months): 15 (11-25)
- patients with large (≥15 point) improvement in KCCQ-TSS ([2]; at 8 months): 54.0%
- patients with moderate (≥10 point) improvement in KCCQ-TSS ([2]; at 8 months): 54.5%
- Change in KCCQ total symptom score at 8 mo., win-ratio (95% CI) ([2]; dapagliflozin vs placebo, No T2DM): 1.15 (1.05, 1.26)
- Change in KCCQ total symptom score at 8 mo., win-ratio (95% CI) ([2]; dapagliflozin vs placebo, T2DM): 1.22 (1.11, 1.35)
- Change in KCCQ total symptom score at 8 mo., Win ratio (95% CI) ([2]; dapagliflozin vs placebo, all patients): 1.18 (1.11-1.26)†
- Change in KCCQ total symptom score at 8 mo., Win ratio (95% CI) ([2]; dapagliflozin vs placebo, all patients, listed as dapagliflozin): 1.18
- odds ratio (95% CI) for large (≥15 point) improvement in KCCQ-TSS [2, 4]: 1.14 (1.07-1.22)
- odds ratio (95% CI) for moderate (≥10 point) improvement in KCCQ-TSS [2, 4]: 1.15 (1.08-1.22)
- odds ratio for deterioration (≥5 point decline) in KCCQ-TSS [2, 4]: 0.84
- odds ratio for ≥5 point improvement in KCCQ-TSS [2, 4]: 1.15
- patients with deterioration in KCCQ-TSS ([2]; individuals with diabetes): 24.5%
- patients with ≥5-point improvement in KCCQ-TSS ([2]; individuals with diabetes): 58.9%
- odds ratio for deterioration in KCCQ-TSS [2, 5]: 0.78 (0.71, 0.87)
- odds ratio for ≥5-point improvement in KCCQ-TSS [2, 5]: 1.20 (1.09, 1.31)
- patients with an increase of at least 5 points in KCCQ-TSS ([2]; individuals without diabetes): 57.7%
- patients with significant deterioration in KCCQ-TSS ([2]; individuals without diabetes): 26.0%
- odds ratio for increase of at least 5 points in KCCQ-TSS [2, 6]: 1.12 (95% CI 1.03, 1.22)
- odds ratio for significant deterioration in KCCQ-TSS [2, 6]: 0.88 (0.81, 0.97)
- KCCQ-TSS increase, points more with dapagliflozin compared to placebo ([2]; patients with diabetes): 3.5 (95% CI 1.6-5.4) points
- KCCQ-TSS increase, points more with dapagliflozin compared to placebo ([2]; patients without diabetes): 2.2 (95% CI 0.7-3.7) points
